Experimental data reported in patent publication US9139551B2, “Preparation of a new class of water-soluble ammonium 2,3-dihydroxy-5-((2R,3R)-3,5,7-trihydroxy-4-oxochroman-2-yl) phenolates and their biological activity of alcohol elimination” (priority 2014, dated 2015).
≈ marks a conversion by molar mass, not a printed value.

Assays:
physchem = settings: water
Balb/C mice = experiment: Dose-effect relationship of TDHM (sleep time and climbing time); type: in vivo
Experimental: Assay the Dose-Effect Relationship of TDHM • Groups design and treatment before experiment are the same as that in Deintoxication test. 30 minutes before intragastric administration of alcohol, mice were gavaged with 0.5 mg/kg BW, 2.0 mg/kg BW, 8.0 mg/kg BW, 32 mg/kg BW, 64 mg/kg BW, 128 mg/kg BW TDHM respectively. Sleep time and climbing time were recorded.

[1] = 8.0 mg/kg BW intragastric, drunk mice
[2] = TDHM 0.5 mg/kg gavage 30 min before alcohol
[3] = TDHM 2 mg/kg gavage 30 min before alcohol
[4] = TDHM 8 mg/kg gavage 30 min before alcohol
[5] = TDHM 32 mg/kg gavage 30 min before alcohol
[6] = TDHM 64 mg/kg gavage 30 min before alcohol
[7] = TDHM 128 mg/kg gavage 30 min before alcohol

Compound | solubility (physchem) | climbing time vs other concentrations of TDHM (Balb/C mice; [1]) | sleep time vs other concentrations of TDHM (Balb/C mice; [1]) | Climbing time (Balb/C mice; [2]) | Holding time (Balb/C mice; [2]) | Climbing time (Balb/C mice; [3]) | Holding time (Balb/C mice; [3]) | Climbing time (Balb/C mice; [4]) | Holding time (Balb/C mice; [4]) | Climbing time (Balb/C mice; [5]) | Holding time (Balb/C mice; [5]) | Climbing time (Balb/C mice; [6]) | Holding time (Balb/C mice; [6]) | Climbing time (Balb/C mice; [7]) | Holding time (Balb/C mice; [7])
O=C1c2c(O)cc(O)cc2O[C@H](c2cc(O)c(O)c(O)c2)[C@H]1O [PDHM, piperidinium 2,3-dihydroxy-5-((2R,3R)-3,5,7-trihydroxy-4-oxochroman-2-yl)phenolate] | 5000 µg/mL (≈ 15.6 mM) | – | – | – | – | – | – | – | – | – | – | – | – | – | –
triethylammonium 2,3-dihydroxy-5-((2R,3R)-3,5,7-trihydroxy-4-oxochroman-2-yl)phenolate [TDHM] | – | longer | significantly shorter | 184.5 min | 147.2 min | 272.67 min | 151.00 min | 368.33 min | 104.5 min | 243.17 min | 106.67 min | 271.83 min | 84.33 min | 298.33 min | 93.5 min
